This note sets out measurements from patent US20260217708A1, “FUSED BENZAZEPINE DERIVATIVES FOR USE IN THE TREATMENT OF CANCER AND EPILEPSY” (UCB BIOPHARMA SRL, priority 2023, published 2026).

The target in assay [1] is T1, system Xc^− (Homo sapiens, UniProt Q9UPY5).
T1 sequence (Q9UPY5 1-501): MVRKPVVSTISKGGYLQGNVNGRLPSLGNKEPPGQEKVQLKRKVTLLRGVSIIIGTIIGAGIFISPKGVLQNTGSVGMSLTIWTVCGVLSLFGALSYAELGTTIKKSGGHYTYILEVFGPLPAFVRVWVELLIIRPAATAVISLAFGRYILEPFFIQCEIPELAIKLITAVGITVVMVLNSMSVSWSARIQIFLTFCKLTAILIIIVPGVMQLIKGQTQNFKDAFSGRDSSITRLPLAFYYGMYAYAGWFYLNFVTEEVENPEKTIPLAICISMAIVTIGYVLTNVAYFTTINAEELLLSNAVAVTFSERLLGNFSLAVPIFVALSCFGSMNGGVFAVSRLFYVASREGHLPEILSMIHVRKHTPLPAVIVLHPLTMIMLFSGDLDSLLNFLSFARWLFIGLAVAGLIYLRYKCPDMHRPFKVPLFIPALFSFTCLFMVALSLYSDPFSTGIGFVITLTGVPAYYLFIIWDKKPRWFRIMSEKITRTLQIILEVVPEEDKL
T1 sequence (P08195 1-529 partner): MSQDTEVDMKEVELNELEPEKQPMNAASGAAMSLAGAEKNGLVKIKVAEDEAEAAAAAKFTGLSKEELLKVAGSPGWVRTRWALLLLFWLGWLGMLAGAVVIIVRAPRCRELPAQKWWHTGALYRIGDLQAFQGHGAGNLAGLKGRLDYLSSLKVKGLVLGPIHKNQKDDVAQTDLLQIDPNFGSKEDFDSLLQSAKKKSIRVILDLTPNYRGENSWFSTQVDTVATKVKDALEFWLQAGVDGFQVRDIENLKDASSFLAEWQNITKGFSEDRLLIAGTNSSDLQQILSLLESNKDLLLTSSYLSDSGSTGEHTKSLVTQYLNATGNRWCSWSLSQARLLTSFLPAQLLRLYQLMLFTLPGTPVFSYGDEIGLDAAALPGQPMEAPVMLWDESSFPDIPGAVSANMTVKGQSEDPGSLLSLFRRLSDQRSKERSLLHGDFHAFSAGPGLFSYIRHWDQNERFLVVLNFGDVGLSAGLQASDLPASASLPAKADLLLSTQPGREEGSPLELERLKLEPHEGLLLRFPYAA
The assay is described as follows: Cystine-induced glutamate release assay. The class given is cell-based. Also on record: endogenous in cells; host or cells: H4 cells. Conditions: H4 cells, sodium-free HEPES buffer, 50 μM L-Cystine, 2 hours, Amplex Red glutamate readout; read-out: pIC50 Cystine-induced glutamate release assay (converted). The method in brief:
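H4 cells in sodium-free HEPES buffer (pH 7.4), 2 days after plating; glutamate release induced with 50 μM L-cystine plus compound (1% DMSO), 2 h at 37 °C. Supernatant glutamate measured by Amplex Red fluorescence; IC50/pIC50 derived between 1% DMSO and 50 μM erastin controls.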

Assay [2] has as its target T1, system Xc^−. Nature of the assay: [^14C]L-Cystine uptake assay. Format: cell-based. Also on record: endogenous in cells; host or cells: H4 cells. Particulars: H4 cells, sodium-free HEPES buffer, 0.5 μM L-[14C]Cystine and 4.5 μM L-Cystine, 1 hour at 37° C.; read-out: pIC50 [^14C] L-Cystine uptake assay (converted). The method in brief: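 H4 cells at 5×10^4 cells/well in sodium-free HEPES buffer were preincubated 15 min with compounds (1% DMSO). Uptake of 0.5 μM [14C]L-cystine plus 4.5 μM unlabelled L-cystine ran 1 hour at 37° C on scintillating plates. IC50 was set between 1% DMSO and 50 μM Erastin controls and expressed as pIC50.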

Take `COc1ncc2c(c1C)-c1cccnc1CC(=O)N2CC(=O)Nc1ccc(C(F)(F)F)cc1` [#67, 2-(4-methoxy-3-meth-yl-9-oxo-5,8,12-triaza-tricyclo[9.4.0.0^2,7]pentadeca-1(11),2(7), 3,5,12,14-hexaen-8-yl)-N-[4-(trifluoromethyl)-phenyl]acetamide]: the IC50 is 39.8 to 100 nM at system Xc^− [1] and 100 to 501 nM at system Xc^− [2].
Take `Cc1nc(C#N)cc2c1-c1cccnc1CC(=O)N2CC(=O)Nc1ccc(C(F)(F)F)cc1` [#167, 2-(5-cyano-3-methyl-9-oxo-4,8,12-triazatricyclo[9.4.0.0^2,7]pentadeca-1(11),2(7),3,5,12,14-hexaen-8-yl)-N-[4-(trifluoromethyl)phenyl]acetamide]: the values for the IC50 on system Xc^− [1] and at system Xc^− [2] were 39.8 to 100 nM and 15.8 to 39.8 nM, respectively.
In the same order, the values of `CC1C(=O)N(CC(=O)Nc2ccc(C(F)F)cc2)c2cc(C(F)F)c(=O)n(C)c2-c2ccccc21` (single isomer, unassigned) [#357, 2-[3-(difluoromethyl)-1,7-dimethyl-2,6-dioxo-7H-pyrido[3,2-d][3]benzazepin-5-yl]-N-[4-(difluoromethyl)phenyl]acetamide] are 15.8 to 39.8 nM and 15.8 to 39.8 nM.
In the same order, the values of `CC1C(=O)N(CC(=O)Nc2ccc(Cl)c(F)c2)c2cc(C#N)ccc2-c2cc(F)cnc21` (single isomer, unassigned) [#307, N-(4-chloro-3-fluoro-phenyl)-2-[9-cyano-2-fluoro-5-methyl-6-oxo-5H-pyrido[2,3-d][1]benzazepin-7-yl]acetamid] are less than 15.8 nM and 15.8 to 39.8 nM.
In the same order, the values of `Cc1cc2c(c(F)n1)-c1ncccc1C(C)C(=O)N2CC(=O)Nc1ccc(Cl)c(F)c1` (single isomer, unassigned) [#401, N-(4-chloro-3-fluoro-phenyl)-2-[15-fluoro-8,13-dimethyl-9-oxo-3,10,14-triazatricyclo[9.4.0.0^2,7]pentadeca-1(15),2,4,6,11,13-hexaen-10-yl]acetamide] are less than 15.8 nM and less than 15.8 nM.
On to `Cc1cc2c(c(C)n1)-c1cccnc1CC(=O)N2CC(=O)Nc1ccc(C(F)(F)F)cc1` [#57, 2-(3,5-dimethyl-9-oxo-4,8,12-triazatricyclo[9.4.0.0^2,7]pentadeca-1(11),2(7),3,5,12,14-hexaen-8-yl)-N-[4-(trifluoromethyl)phenyl]acetamide], for which the IC50 at system Xc^− [1] and on system Xc^− [2] was 15.8 to 39.8 nM each time.
On to `Cc1cc2c(cn1)-c1ncccc1CC(=O)N2CC(=O)Nc1ccc(C(F)(F)F)cc1` [#12, 2-(13-methyl-9-oxo-3,10,14-triazatricyclo[9.4.0.0^2,7]pentadeca-1(11),2(7),3,5,12,14-hexaen-10-yl)-N-[4-(trifluoromethyl)phenyl]acetamide], for which the IC50 on system Xc^− [1] and on system Xc^− [2] was 100 to 501 nM throughout.
Regarding `CC1C(=O)N(CC(=O)Nc2ccc(Cl)c(F)c2)c2cc(F)nc(OCCO)c2-c2cccnc21` (centres unmarked) [#376, N-(4-chloro-3-fluoro-phenyl)-2-[5-fluoro-3-(2-hydroxyethoxy)-10-methyl-9-oxo-4.8,12-triazatricyclo[9.4.0.0^2,7]pentadeca-1(15),2,4,6,11,13-hexaen-8-yl]acetamide], the IC50 at system Xc^− [1] was 15.8 to 39.8 nM; at system Xc^− [2], 39.8 to 100 nM.
The like results for `Cc1cc2c(c(F)n1)-c1ccccc1CC(=O)N2CC(=O)Nc1ccc(C(F)F)cc1` [#134, N-[4-(difluoromethyl)phenyl]-2-(1-fluoro-3-methyl-6-oxo-7H-pyrido[4,3-d][3]benzazepin-5-yl)acetamide] were, in that order, 39.8 to 100 nM and less than 15.8 nM.
In the same order, the values of `Cc1cc2c(cn1)-c1cnccc1CC(=O)N2CC(=O)Nc1ccc(C(F)(F)F)cc1` [#6, 2-(5-methyl-9-oxo-4,8,14-triazatricyclo[9.4.0.0^2,7]pentadeca-1(11),2(7),3,5,12,14-hexaen-8-yl)-N-[4-(trifluoromethyl)phenyl]acetamide] are 100 to 501 nM and 100 to 501 nM.
With `Cc1cc2c(c(F)n1)-c1ccccc1CC(=O)N2CC(=O)Nc1ccc(C(F)(F)F)cc1` [#39, 2-(1-fluoro-3-methyl-6-oxo-7H-pyrido[4,3-d][3]benzazepin-5-yl)-N-[4-(trifluorometh-yl)phenyl]acetamide], the IC50 on system Xc^− [1] and on system Xc^− [2] was 15.8 to 39.8 nM throughout.
For the compound `COc1cc2c(c(F)n1)-c1cccnc1[C@@H](C)C(=O)N2CC(=O)Nc1ccc(C(F)(F)F)cc1` (single isomer, unassigned) [#209, Enantiomer (10S) or (10R) of 2-[3-fluoro-5-methoxy-10-methyl-9-oxo-4,8,12-triazatricyclo[9.4.0.0^2,7]pentadeca-1(15),2(7),3,5,11,13-hexaen-8-yl]-N-[4-(trifluoromethyl)phenyl]acetamide], the IC50 at system Xc^− [1] and on system Xc^− [2] was 15.8 to 39.8 nM each time.
On to `Cc1cc2c(c(F)n1)-c1cccnc1[C@@H](C)C(=O)N2CC(=O)Nc1ccc(C(F)(F)F)c(F)c1` [#143, 2-[(10R)-3-fluoro-5,10-dimethyl-9-oxo-4,8,12-triazatricyclo[9.4.0.0^2,7]pentadeca-1(11),2(7),3,5,12,14-hexaen-8-yl]-N-[3-fluoro-4-(trifluoromethyl)phenyl]acetamide], for which the IC50 is 15.8 to 39.8 nM on system Xc^− [1] and less than 15.8 nM at system Xc^− [2].
The like results for `Cc1cc2c(cn1)-c1ccc(F)cc1CC(=O)N2CC(=O)Nc1ccc(C(F)(F)F)cc1` [#34, 2-(9-fluoro-3-methyl-6-oxo-7H-pyrido[4,3-d][3]benzazepin-5-yl)-N-[4-(trifluoro-methyl)phenyl] acetamide] were, in that order, 100 to 501 nM and 39.8 to 100 nM.
In the same order, the values of `Cc1cc2c(c(F)n1)-c1cccnc1[C@@H](C)C(=O)N2CC(=O)Nc1ccc(OC(F)F)cc1` [#139, N-[4-(difluoromethoxy)phenyl]-2-[(10R)-3-fluoro-5,10-dimethyl-9-oxo-4,8,12-triazatricyclo[9.4.0.0^2,7]pentadeca-1(11),2(7),3,5,12,14-hexaen-8-yl]acetamide] are 15.8 to 39.8 nM and 15.8 to 39.8 nM.
As to `Cc1cc2c(c(Cl)n1)-c1cc(F)cnc1C(C)C(=O)N2CC(=O)Nc1ccc(C(C)(F)F)cc1` (single isomer, unassigned) [#423, 2-(3-chloro-14-fluoro-5,10-dimethyl-9-oxo-4,8,12-triazatricyclo[9.4.0.0^2,7]pentadeca-1(11),2,4,6,12,14-hexaen-8-yl)-N-[4-(1,1-difluoroethyl)phenyl]acetamide], the IC50 on system Xc^− [1] and at system Xc^− [2] was less than 15.8 nM each time.
For `[2H]C([2H])([2H])C1C(=O)N(CC(=O)Nc2ccc(C(F)(F)F)cc2)c2cc(C)nc(F)c2-c2cccnc21` (centres unmarked) [#92, 2-[3-fluoro-5-methyl-9-oxo-10-(trideuteriomethyl)-4,8,12-triazatricyclo[9.4.0.0^2,7]pentadeca-1(15),2(7),3,5,11,13-hexaen-8-yl]-N-[4-(trifluoromethyl)phenyl]acetamide], the results for the IC50 at system Xc^− [1] and on system Xc^− [2] were 39.8 to 100 nM and less than 15.8 nM, respectively.
The like results for `Cc1cc2c(c(=O)n1C)-c1ccc(Cl)cc1C(C)C(=O)N2CC(=O)Nc1ccc(Cl)c(F)c1` (centres unmarked) [#352, N-(4-chloro-3-fluoro-phenyl)-2-(9-chloro-2,3,7-trimethyl-1,6-dioxo-7H-pyrido[4,3-d][3]benzazepin-5-yl)acetamide] were, in that order, 15.8 to 39.8 nM and less than 15.8 nM.
The like results for `Cc1cc2c(c(Cl)n1)-c1cncnc1C(C)C(=O)N2CC(=O)Nc1ccc(Cl)c(F)c1` (single isomer, unassigned) [#220, Enantiomer (8S) or (8R) of 2-[15-chloro-8,13-dimethyl-9-oxo-4,6,10,14-tetrazatricyclo[9.4.0.0^2,7]pentadeca-1(15),2,4,6,11,13-hexaen-10-yl]-N-(4-chloro-3-fluoro-phenyl)acetamide] were, in that order, less than 15.8 nM and less than 15.8 nM.
